row,SMILES,melting point [°C]
1,O=c1ccn(-c2ccccc2N2CCOCC2)nc1-c1ccnn1-c1ccccc1,200 to 201
2,O=C(O)CCCCCc1nc2c(F)c(F)cc(F)c2s1,84 to 86
3,CCCCCCCCNC(=O)c1cnc2cccc(C)n2c1=O,108 to 110
4,c1ccc(-c2ccc(CCNc3ccncc3)cc2)cc1,140
5,COc1cc2onc(-c3ccccc3F)c2cc1Cl,165 to 166
6,CC(C)c1cccc(C(C)C)c1NC(=O)CS(=O)(=O)CCCl,166 to 168
7,CCN1CC(=O)Nc2cc(Nc3ncc(Cl)c(Nc4ccccc4S(=O)(=O)N(C)C)n3)c(OC)cc2C1,175
8,O=C(NCc1ccc(Cl)cc1)c1ccc2cnccc2n1,110 to 111
9,CNS(=O)(=O)CCc1ccc2[nH]ccc2c1,122 to 124
10,CN(C)CCC(Oc1ccc(C(F)(F)F)cc1)c1ccccc1 (centres undefined),117 to 119
11,OCCCOc1nc(N2CCCCC2)c2nc(OCCCO)nc(N3CCCCC3)c2n1,154 to 156
12,Cc1ccc(C2CCN(C(=O)CCC(=O)c3ccc4c(c3)CNCC4)CC2)cc1,119 to 120
13,CC(=O)NNC1=Nc2sc(Cl)cc2C(c2ccccn2)=NC1,193 to 195
14,Cc1[nH]c(=O)sc1C(=O)c1ccc(N(C)C)cc1,224 to 226
15,C=CCSC(=NC(=O)OC)NC(=O)NC(C)C,103 to 106
16,CC(C)(C)OC(=O)[C@@H]1CSC(C2CCCCC2)N1C(=O)CNC(=O)Nc1cccc(CC(=O)O)c1 (some centres undefined),115
17,Cc1c(C)c2c(c(C)c1O)SC(CCCI)O2 (centres undefined),72 to 75
18,CC(C)(CO)NCc1ccccc1,46 to 47
19,CCCCCCCCCCCCCCCCCCSC(C)(C)C(=O)CC(=O)Nc1ccccc1OC,59 to 61
20,C[C@H](OC(=O)NCC(F)(F)C(F)(F)F)C(=O)N[C@@H]1C(=O)N(C)c2cc(F)ccc2O[C@@H]1C,148 to 150
21,O=C1Nc2cccnc2N(C(=O)Cl)c2ccccc21,239 to 240
22,CCCCCCCCCCCCc1cnn(C(C(=O)O)c2ccccc2)n1 (centres undefined),94 to 98
23,CNC(=O)OC1CCN(C(=O)Oc2ccc(Oc3ccccc3)cc2)CC1,117 to 119
24,Cc1ccccc1CC(=NC#N)NC(NC(=O)Cc1ccccc1)C(C)(C)C (centres undefined),182 to 183
25,CCC(OCC(F)F)c1ccc(Cl)c2nc3n(c12)CCCN3c1ccc(OC)nc1C (centres undefined),130 to 132
26,Cn1c(=N)c(F)cn(S(=O)(=O)c2ccccc2)c1=O,144

row,SMILES,melting point [°C]
1,CC1(C)OC(=S)Nc2ccc(-c3ccc(F)c(Cl)c3)cc21,196 to 197
2,Fc1cc(CC2(Cc3ccnc(F)c3)c3cccnc3-c3cccnc32)ccn1,134 to 135
3,CC(=O)N1CCN(CC2CN=C(c3cc4cc(OCCCS(C)(=O)=O)cc(N(C)S(=O)(=O)c5ccccn5)c4[nH]3)S2)CC1 (centres undefined),165 to 167
4,Cc1ccc(CN2Cc3cncn3CC2=O)cc1,105 to 108
5,CC1=C(C(=O)c2ccc(Cl)cc2)C(=O)C2C=CC=CC2C1=O (centres undefined),136 to 137
6,C[C@@H](n1cnc2ccc(F)cc2c1=O)[C@](O)(Cn1cncn1)c1ccc(F)cc1F,192 to 193
7,CCCCc1nc2c(N)nc3ccc(OCCC4CCNCC4)cc3c2n1C,210 to 212
8,Cc1cc(Nc2ncnc3ccn(CCNC(=O)C(C)(C)C)c23)ccc1Oc1cccc2sncc12,189 to 191
9,Nc1ccccc1NC(=O)c1ccc(CNC(=O)c2[nH]c(-c3ccsc3)cc2-c2ccc(O)cc2)cc1,135 to 137
10,Cc1cc(C)cc(OCC(C)O)c1 (centres undefined),48.7 to 49.5
11,O=C(O)Cc1cccc(Oc2ccccc2Cl)c1O,103 to 105
12,CCCn1nc(O)c2cc(Cl)c(Cl)cc2c1=O,223
13,COC(=O)C(=Cc1cc(OC)cc(OC)c1)c1ccc(Oc2ccc(C=O)cc2)cc1,108 to 110
14,O=[N+]([O-])c1ccc(Oc2ccc3c(c2)Nc2ccccc2S3)cc1,210 to 211
15,c1ccc(CN2CCC(c3cc(-c4ccccc4)[nH]n3)CC2)cc1,130 to 131
16,COc1ccc(C(=O)N2Cc3ccccc3CC2C(=O)O)cc1 (centres undefined),178 to 180
17,O=C(O)c1ncc(OCc2ccccc2)c(OCc2ccccc2)c1Br,155 to 157
18,O=C(CCO)Nc1cccc(S)c1,103 to 104
19,CSC[C@H](NC(C)=O)C(=O)NO,126 to 127
20,N#Cc1c(C#N)n(-c2ccc(Cl)cc2)c(=O)n1Cc1ccccc1,192 to 194
21,CON=C(C(=O)OC)c1ccccc1COc1ccc2c(c1)OCC2=O,134 to 137
22,CCCC(=O)c1cc2c(=O)c(C(=O)OCC)cn(CC)c2cc1C,145 to 146
23,O=C(NCCO)c1ccnc(-c2cccc3cc(Cc4cccc(C(F)(F)F)c4)sc23)c1F,110 to 111
24,COc1ccc(CC(C)NCC(O)c2ccccc2OC)cc1OC (centres undefined),125 to 126
25,O=C(O)C(Cc1ccccc1)c1ccc([N+](=O)[O-])cc1 (centres undefined),163 to 164
26,COc1cc(C)ccc1S(=O)(=O)NC(=O)C(c1ccc2c(c1)OCO2)c1cn(C)c2ccc(Br)cc12 (centres undefined),145 to 150

row,SMILES,melting point [°C]
1,COc1ccc(C(=O)c2ccc(-c3nc4ccccc4o3)cc2)c(O)c1,177 to 179
2,O=C(O)CCCC1CCN(CCOC(c2ccc(F)cc2)c2ccc(F)cc2)CC1,145 to 147
3,O=C(COc1ccc(CCNS(=O)(=O)c2ccccc2)cc1)Nc1ccccc1,123
4,CN1CC(=O)Nc2ccc([N+](=O)[O-])cc2C1=O,250 to 252
5,CCN1CC(OCC2CC2)(C(F)(F)F)c2cc(F)ccc2NC1=O (centres undefined),156
6,O=C1C=CC(=O)N1c1ccc(Cl)cc1,109 to 110
7,O=c1[nH]c2cc(Cl)cc(Cl)c2c(O)c1Sc1ccc(NC(=S)NCc2ccccc2)cc1,282
8,Cc1cc(C(=O)C(F)(F)F)ccc1NC(=O)OC(C)(C)C,85 to 87
9,COc1c(O)ccc(C(=O)c2ccccc2)c1[N+](=O)[O-],169 to 171
10,Cc1nc(Cn2c(=O)sc3cc(F)ccc32)no1,142 to 144
11,CCCCc1nc2ccccc2n1Cc1ccc(-c2ccccc2C(=O)O)cc1,225 to 227
12,CNC(=O)CCSCc1csc(NC(N)=NCC(F)(F)F)n1,152 to 154
13,CN(C)CCSc1ccc2ccc(N)nc2n1,174
14,CCOC(=O)c1cc(=O)c2c(ccc3nc(C(=O)OC)cc(O)c32)o1,247 to 248
15,CC(C)c1cccc(C(C)C)c1OCC(N)=O,136 to 138
16,COc1cc(OCCOc2ccc3ccccc3c2)cc(OC)c1C(=O)C(=O)O,154
17,CCCN(CCC)c1c(C#N)cnn1-c1ccc(Cl)c(Cl)c1Cl,99 to 100
18,CCc1cc2c(s1)S(=O)CCc1cc(=O)n(-c3ccc(Cl)cc3)nc1-2 (centres undefined),173 to 174
19,CCCCNC[C@@H](O)[C@H](Cc1ccccc1)NC(=O)OCc1ccccc1,118 to 120
20,O=C1OCCC1Oc1ccc(Cl)cc1[N+](=O)[O-] (centres undefined),136 to 140
21,COc1cc(OC)c2c(=O)[nH]c(-c3ccc(OCCNC(C)C)c(-c4ccccc4)n3)nc2c1,179 to 180
22,CC(C)c1cccc(C(C)C)c1NC(=O)CO,164 to 166
23,CCn1cc[nH]c(=O)c1=O,173 to 174
24,Oc1cccc(-c2c(-c3ccccc3F)cnc3c(C(F)(F)F)cccc23)c1,186 to 187
25,CCN1CCCC(NC(=O)c2ccc(Nc3ccnc4c(C(F)(F)F)cccc34)cc2)C1 (centres undefined),177 to 178
26,CCCCCNC(=O)CC(=O)O,67.5 to 68.5

row,SMILES,melting point [°C]
1,CC(=O)n1cccc(O)c1=O,140 to 141
2,CCN1C(=O)Cc2cc3c(cc21)C(=O)c1ccccc1CO3,186 to 188
3,CC(=O)OC1CSC(Oc2cncc(-c3ccc(C#N)c(C)c3)c2)C(OC(C)=O)C1OC(C)=O (centres undefined),74 to 80
4,Cc1c(C)c(N2CCN(c3c(C)c(C)c4c(c3C)CC(C)(C)O4)CC2)c(C)c2c1OC(C)(C)C2,256 to 260
5,COc1ccc(C2(c3ccc(OC)cc3)C(c3ccccc3)C2(Cl)Cl)cc1 (centres undefined),124 to 125
6,NC(=O)c1ccc(C(N)=O)c(CC(O)CO)c1 (centres undefined),194
7,Nc1nc(=O)n(C(=O)Oc2ccccc2)cc1F,175 to 180
8,CCOC(=O)c1cc2ccc3c(c2cc1OCC)OC(n1cccc1)=C(C#N)C3c1cccc([N+](=O)[O-])c1 (centres undefined),202 to 203
9,Cc1c(-c2ccccc2)oc2c(C(=O)CCC(=O)O)cccc2c1=O,191 to 192
10,CC1(Cn2c(=O)oc3ccc(Br)cc32)Cn2cc([N+](=O)[O-])nc2O1 (centres undefined),243 to 246
11,Cc1cc(F)ccc1-c1cscc1-c1ccc(S(C)(=O)=O)cc1,158 to 160
12,CC(=O)N1CCc2cc(C(=O)C(C)Br)ccc21 (centres undefined),140 to 142
13,COc1cc(OC)cc(-c2nsnc(Cl)c2=O)c1,121 to 124
14,COc1ccc(C)cc1NC(=O)Nc1ccc(N2CCN(Cc3ccccc3)CC2)cc1,184 to 186
15,Cn1c2c(c3cccc(C#N)c31)C(=O)NCC2,230 to 231
16,Nc1ncc(Cl)nc1Br,102 to 105
17,COc1cc(Nc2nc3cccc(-c4ccc(C#N)cc4)c3o2)cc(OC)c1OC,222 to 223
18,COC(=O)c1cc(OC)c(N(C)C)c(OC)c1,71 to 72
19,CCOCc1nc2c(N)nc3cc(O)ccc3c2n1CC(C)(C)NS(C)(=O)=O,255 to 256
20,CCOc1cc2c(c3c1OC(C)(C)C3)C(c1cccc(C(=O)NC)c1)=NC(C)(C)C2,173 to 174
21,CC=CCN1c2cc(Cl)ccc2NC(=O)[C@@H]1C,87 to 88
22,O=C1CN2C(=O)N(c3cc(Cl)nc(Cl)c3)C(=O)[C@@]2(Cc2ccc(OC(F)(F)F)cc2)C1,166
23,CSc1nnsc1-c1cccs1,49 to 49.5
24,NC(=O)c1c(-c2ccccc2)csc1O,108 to 110
25,COC=C(C(=O)OC)c1ccccc1,37 to 38
26,CN(C)C(=O)N(SC(N)=S)c1ccccc1,185 to 188

# — a melting point compilation (Tetko et al.; mined from patent text by program, amines drawn as free bases though some values may be those of a salt)
